Active and inactive are the calls of the source.
Key:
Fatty acid synthase [1] = biological target: T1, Fatty acid synthase (Homo sapiens, UniProt P49327); experiment: FAS thioesterase domain inhibitors, dose response, biochemical, endpoint fluorescence intensity, uHTS hits (AID 624327); type: functional;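 also: fluorescence from hydrolysis of an O-methyl fluorescein acyl ester substrate by the enzyme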
Fatty acid synthase [2] = biological target: T1, Fatty acid synthase; experiment: FAS thioesterase domain inhibitors, dose response, biochemical, kinetic fluorescence intensity (AID 624326); type: functional;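 also: rate of fluorescence rise from hydrolysis of a fluorogenic O-methyl fluorescein ester substrate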
[3] = HEp-2 cell cytotoxicity, dose response, cytotoxicity control for RSV inhibitor project, HTS (AID 2410); type: functional; conditions: human respiratory syncytial virus
Cytochrome P450 1A2 = biological target: T2, Cytochrome P450 1A2 (Homo sapiens, UniProt P05177);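 also: PubChem cytochrome P450 panel assay, CYP1A2 panel member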
T2 sequence (P05177 whole entry): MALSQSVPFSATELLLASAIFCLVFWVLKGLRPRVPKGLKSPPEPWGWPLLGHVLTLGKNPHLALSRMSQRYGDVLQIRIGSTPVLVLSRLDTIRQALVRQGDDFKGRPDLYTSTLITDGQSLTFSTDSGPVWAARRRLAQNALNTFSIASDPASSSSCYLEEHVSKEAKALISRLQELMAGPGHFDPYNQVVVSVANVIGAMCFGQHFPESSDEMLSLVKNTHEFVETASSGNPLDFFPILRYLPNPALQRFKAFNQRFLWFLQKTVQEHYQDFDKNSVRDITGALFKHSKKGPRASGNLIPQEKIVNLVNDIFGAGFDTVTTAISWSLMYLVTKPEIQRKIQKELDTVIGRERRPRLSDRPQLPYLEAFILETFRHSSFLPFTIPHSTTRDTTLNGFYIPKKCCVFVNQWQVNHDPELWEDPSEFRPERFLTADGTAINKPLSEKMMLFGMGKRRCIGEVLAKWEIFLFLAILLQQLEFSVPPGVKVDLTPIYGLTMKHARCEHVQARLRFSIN

[4] = C. albicans growth with fluconazole, confirmation, fluorescence, retest (AID 2467); type: functional, cell-based
[5] = NIH-3T3 fibroblast cytotoxicity, dose response, cytotoxicity control, cell-based, fluorescence, Alamar Blue, secondary assay (AID 2327); type: functional;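 also: NIH-3T3 mouse fibroblasts cultured with fluconazole at 8 µg/mL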
Cytochrome P450 3A4 = Cytochrome P450 3A4 (Homo sapiens, UniProt P08684);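 also: CYP3A4 tested as one member of a cytochrome P450 panel screen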
Cytochrome P450 2D6 = Cytochrome P450 2D6 (Homo sapiens, UniProt P10635);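 also: CYP2D6 member of a cytochrome P450 panel assay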
Streptococcus = experiment: Group A Streptococcus viability loss, dose response, counter-screen for streptokinase expression inhibitor project, luminescence, BacTiterGlo (AID 1915); type: functional, organism-based;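 also: potency for reduction of bacterial viability or growth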
Streptokinase A = biological target: T3, Streptokinase A (Streptococcus pyogenes serotype M1, UniProt P10520); experiment: S. pyogenes streptokinase expression inhibitors, potency, dose response, plasminogen activation absorbance, OD405 (AID 1914); type: functional, Streptococcus pyogenes M1 GAS;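 also: secreted streptokinase activity via plasminogen activation per viability signal from cell pellet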
T3 sequence (P10520 whole entry): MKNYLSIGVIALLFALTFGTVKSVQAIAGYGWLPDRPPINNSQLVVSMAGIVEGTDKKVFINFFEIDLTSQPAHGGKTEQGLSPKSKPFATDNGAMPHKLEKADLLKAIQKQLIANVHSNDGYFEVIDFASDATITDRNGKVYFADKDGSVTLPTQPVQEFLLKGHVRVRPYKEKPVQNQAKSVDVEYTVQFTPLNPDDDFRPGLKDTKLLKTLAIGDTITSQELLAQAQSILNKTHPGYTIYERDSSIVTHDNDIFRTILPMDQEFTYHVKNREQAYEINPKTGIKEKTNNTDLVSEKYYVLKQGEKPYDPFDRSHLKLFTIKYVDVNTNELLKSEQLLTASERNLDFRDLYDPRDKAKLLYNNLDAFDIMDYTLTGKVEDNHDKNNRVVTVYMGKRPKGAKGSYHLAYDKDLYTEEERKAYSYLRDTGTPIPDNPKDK

[6] = tested on: Streptococcus sp. 'group A'; experiment: growth inhibition of control SK(-) GAS strain, dose response, counter-screen for streptokinase expression inhibitor project, luminescence, kanamycin, BacTiterGlo, confirmation (AID 1900); type: functional, organism-based
Cytochrome P450 2C19 = Cytochrome P450 2C19 (Homo sapiens, UniProt P33261); experiment: Cytochrome panel assay with activity outcomes. Panel member name: p450-cyp2c19 Compounds with AC50 equal or less than 10 uM are considered active; type: functional; conditions: read-out: AC50
Cytochrome P450 2C9 = Cytochrome P450 2C9 (Homo sapiens, UniProt P11712)
[7] = Luminescence Cell-Based Dose Response HTS to Identify Activators of Luciferase Translation or Activity in H4 […] Cells. [Related pubchem assays: 1829 (Project Summary), 1814 (Primary HTS)]; type: functional
H4 = experiment: Luminescence Cell-Based Dose Response HTS to Identify Activators of 5'UTR Stem-Loop Driven Prion Protein mRNA Translation in H4 Neuroglioblastoma Cells. [Related pubchem assays: 1829 (Project Summary), 1814 (Primary HTS)]; type: functional; conditions: Homo sapiens

Chain of Cytochrome P450 3A4 (P08684 whole entry): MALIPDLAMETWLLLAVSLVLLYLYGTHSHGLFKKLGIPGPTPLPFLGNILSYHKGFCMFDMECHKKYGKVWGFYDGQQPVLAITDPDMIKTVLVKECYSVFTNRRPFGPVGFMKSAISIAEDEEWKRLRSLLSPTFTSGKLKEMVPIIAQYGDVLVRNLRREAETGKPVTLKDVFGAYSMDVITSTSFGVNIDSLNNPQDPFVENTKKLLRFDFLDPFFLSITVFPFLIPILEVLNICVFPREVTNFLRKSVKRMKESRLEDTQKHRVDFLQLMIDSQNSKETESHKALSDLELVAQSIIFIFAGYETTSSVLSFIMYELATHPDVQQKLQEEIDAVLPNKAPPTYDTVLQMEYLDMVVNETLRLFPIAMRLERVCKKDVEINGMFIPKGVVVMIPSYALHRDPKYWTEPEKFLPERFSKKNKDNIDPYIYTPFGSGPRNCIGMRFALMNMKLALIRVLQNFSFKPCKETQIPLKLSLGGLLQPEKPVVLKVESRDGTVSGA
Chain of Cytochrome P450 2D6 (P10635 whole entry): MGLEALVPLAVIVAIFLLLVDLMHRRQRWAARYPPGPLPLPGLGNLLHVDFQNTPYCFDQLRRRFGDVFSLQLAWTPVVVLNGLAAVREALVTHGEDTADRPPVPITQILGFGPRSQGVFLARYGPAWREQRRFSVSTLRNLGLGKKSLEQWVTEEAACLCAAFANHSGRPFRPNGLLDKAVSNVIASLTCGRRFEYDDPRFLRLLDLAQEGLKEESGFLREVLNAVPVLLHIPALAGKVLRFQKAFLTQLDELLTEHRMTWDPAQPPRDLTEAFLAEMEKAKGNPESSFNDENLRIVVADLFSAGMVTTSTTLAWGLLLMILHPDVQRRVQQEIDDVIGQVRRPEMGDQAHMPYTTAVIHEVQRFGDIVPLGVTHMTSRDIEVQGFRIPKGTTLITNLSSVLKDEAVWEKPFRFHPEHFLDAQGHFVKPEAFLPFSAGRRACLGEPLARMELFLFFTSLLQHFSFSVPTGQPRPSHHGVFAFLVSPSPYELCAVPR
Chain of Cytochrome P450 2C19 (P33261 whole entry): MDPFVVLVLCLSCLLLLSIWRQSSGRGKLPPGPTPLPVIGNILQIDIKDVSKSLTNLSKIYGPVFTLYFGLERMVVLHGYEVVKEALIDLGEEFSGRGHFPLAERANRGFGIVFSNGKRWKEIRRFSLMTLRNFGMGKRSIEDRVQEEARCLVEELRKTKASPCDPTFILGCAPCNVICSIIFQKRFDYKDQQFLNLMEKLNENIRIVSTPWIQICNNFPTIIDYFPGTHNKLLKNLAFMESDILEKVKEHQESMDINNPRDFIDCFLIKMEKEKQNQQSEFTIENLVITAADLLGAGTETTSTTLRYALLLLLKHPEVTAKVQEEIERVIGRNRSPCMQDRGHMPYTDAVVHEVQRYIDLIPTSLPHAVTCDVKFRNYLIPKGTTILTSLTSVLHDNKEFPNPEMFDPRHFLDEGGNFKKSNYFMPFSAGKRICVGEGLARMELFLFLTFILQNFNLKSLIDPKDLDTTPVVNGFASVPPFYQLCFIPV
T1 sequence (P49327 whole entry, the tested form may be a part): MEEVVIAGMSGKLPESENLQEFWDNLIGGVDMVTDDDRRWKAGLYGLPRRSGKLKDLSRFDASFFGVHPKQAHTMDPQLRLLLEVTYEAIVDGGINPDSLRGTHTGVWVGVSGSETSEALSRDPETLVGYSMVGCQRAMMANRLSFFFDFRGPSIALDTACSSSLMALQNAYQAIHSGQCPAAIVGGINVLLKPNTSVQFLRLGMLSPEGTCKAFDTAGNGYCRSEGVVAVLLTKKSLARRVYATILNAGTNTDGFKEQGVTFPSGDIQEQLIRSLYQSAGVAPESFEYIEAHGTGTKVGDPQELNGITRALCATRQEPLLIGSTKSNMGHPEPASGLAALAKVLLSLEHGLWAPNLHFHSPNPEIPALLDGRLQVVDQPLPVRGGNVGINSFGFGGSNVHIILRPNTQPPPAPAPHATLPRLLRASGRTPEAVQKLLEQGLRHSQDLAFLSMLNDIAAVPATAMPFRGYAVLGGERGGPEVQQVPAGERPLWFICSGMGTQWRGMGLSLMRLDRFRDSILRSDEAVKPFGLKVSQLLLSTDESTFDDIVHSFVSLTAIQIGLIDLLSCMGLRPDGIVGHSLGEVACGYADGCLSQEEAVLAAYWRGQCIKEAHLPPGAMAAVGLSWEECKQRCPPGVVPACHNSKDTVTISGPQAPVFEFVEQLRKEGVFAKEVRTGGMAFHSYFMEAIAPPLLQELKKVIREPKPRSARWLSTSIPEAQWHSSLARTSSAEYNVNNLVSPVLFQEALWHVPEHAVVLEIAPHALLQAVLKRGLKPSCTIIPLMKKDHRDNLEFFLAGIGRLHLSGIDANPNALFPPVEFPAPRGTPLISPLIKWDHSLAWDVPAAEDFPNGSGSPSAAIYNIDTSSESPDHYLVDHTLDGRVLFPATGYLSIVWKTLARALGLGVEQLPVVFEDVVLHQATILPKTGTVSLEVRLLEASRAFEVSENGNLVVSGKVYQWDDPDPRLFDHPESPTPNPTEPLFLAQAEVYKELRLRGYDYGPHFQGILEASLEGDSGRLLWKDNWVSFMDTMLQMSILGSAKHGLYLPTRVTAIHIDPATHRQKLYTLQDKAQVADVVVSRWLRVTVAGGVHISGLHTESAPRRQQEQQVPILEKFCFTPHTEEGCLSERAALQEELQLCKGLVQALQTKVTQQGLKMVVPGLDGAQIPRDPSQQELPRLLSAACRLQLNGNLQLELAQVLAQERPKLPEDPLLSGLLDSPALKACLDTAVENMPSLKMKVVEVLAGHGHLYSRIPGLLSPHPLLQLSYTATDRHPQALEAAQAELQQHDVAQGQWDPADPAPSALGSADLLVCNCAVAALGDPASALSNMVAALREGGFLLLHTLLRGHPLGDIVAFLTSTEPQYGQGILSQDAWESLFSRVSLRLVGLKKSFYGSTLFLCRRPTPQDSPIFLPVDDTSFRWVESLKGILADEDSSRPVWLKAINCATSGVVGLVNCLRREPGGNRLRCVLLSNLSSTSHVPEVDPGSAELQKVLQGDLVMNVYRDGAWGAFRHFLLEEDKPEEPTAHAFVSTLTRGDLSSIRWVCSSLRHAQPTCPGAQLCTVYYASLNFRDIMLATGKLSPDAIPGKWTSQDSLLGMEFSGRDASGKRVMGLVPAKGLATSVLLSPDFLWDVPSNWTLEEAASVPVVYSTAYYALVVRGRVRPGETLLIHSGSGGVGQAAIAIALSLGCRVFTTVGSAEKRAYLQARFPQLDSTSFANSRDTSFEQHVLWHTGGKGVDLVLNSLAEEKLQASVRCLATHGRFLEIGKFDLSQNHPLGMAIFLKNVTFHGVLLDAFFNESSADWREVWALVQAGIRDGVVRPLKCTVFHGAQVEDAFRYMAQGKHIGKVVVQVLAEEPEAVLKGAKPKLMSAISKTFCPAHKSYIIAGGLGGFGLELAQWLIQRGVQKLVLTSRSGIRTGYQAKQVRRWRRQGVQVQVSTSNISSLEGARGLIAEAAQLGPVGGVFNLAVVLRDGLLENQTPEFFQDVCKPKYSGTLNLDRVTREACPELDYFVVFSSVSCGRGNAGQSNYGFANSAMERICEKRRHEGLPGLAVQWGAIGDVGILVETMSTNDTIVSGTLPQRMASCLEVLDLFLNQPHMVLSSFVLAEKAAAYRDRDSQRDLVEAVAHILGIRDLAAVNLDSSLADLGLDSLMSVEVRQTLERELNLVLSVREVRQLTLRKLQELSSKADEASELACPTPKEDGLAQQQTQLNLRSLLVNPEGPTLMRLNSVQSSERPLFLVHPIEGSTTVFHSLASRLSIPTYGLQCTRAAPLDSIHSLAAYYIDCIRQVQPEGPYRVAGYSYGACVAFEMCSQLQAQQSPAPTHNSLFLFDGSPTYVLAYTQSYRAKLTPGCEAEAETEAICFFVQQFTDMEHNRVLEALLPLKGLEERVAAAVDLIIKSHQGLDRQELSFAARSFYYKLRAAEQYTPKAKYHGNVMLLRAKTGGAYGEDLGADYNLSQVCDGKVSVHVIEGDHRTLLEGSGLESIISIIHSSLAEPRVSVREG
Chain of Cytochrome P450 2C9 (P11712 whole entry): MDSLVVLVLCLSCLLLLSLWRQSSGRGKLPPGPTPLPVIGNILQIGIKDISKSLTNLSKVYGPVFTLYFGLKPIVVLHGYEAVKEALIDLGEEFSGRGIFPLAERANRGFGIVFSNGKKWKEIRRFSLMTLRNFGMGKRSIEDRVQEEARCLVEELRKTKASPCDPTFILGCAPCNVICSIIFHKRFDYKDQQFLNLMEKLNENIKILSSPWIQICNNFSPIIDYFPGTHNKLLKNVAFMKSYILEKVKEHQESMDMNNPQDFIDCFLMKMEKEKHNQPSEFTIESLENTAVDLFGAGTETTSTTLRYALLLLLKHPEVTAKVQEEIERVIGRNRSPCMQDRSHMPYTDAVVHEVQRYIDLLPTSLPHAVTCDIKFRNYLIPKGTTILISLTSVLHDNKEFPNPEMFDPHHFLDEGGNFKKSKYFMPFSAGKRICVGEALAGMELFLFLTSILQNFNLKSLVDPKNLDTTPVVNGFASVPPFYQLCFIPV

## CCCCC(=O)N/N=C/c1cc([N+](=O)[O-])ccc1N1CCOCC1
Fatty acid synthase [1]
  IC50: 4.56 µM (active)
Fatty acid synthase [2]
  IC50: 4.13 µM (active)

## O=C(CN1CCC(n2nnc3ccccc32)CC1)Nc1ccc2c(c1)CCC2
[3]
  CC50: 49.5 µM (active)

## CN(C)c1ncc2nc(-c3cccs3)c(=O)n(CCc3ccccc3)c2n1
Cytochrome P450 1A2
  AC50: 5.01 µM (inconclusive)

## O=C(NNc1ccc([N+](=O)[O-])cc1)c1ccccc1Cl
[4]
  EC50: > 38 µM (not active)
[5]
  EC50: > 150 µM (inactive)

## Nc1ccc(C#Cc2c(-c3ccsc3)oc3ccc(N4CCOCC4)cc23)cc1
[3]
  CC50: 31.5 µM (active)

## C[C@]1(c2ccccc2)OC(C(=O)O)=CC1=O
Cytochrome P450 1A2
  AC50: 39.8 µM (inconclusive)

## CC(C)(C)Nc1nc(-c2ccc3c(c2)CCN3C(=O)C2CC2)cs1
[3]
  CC50: 25.2 µM (active)

## Fc1ccc(C2CC(c3ccco3)=NN2c2ccccc2)cc1 (stereo not given)
Cytochrome P450 3A4
  AC50: 0.0251 µM (inconclusive)

## O=S(=O)(Nc1nc(-c2ccccc2)cs1)c1cc(Cl)ccc1Cl
[4]
  EC50: 1.8 µM (active)
[5]
  EC50: > 160 µM (inactive)

## Cc1noc(C)c1NC(=O)Nc1cccc2c1O[C@H](CN(C)C(=O)NC1CCCCC1)[C@@H](C)CN([C@H](C)CO)C2=O
Fatty acid synthase [1]
  IC50: 2.47 µM (active)
Fatty acid synthase [2]
  IC50: 4.3 µM (active)

## Cc1noc(C)c1C(=O)N1CCC2(CC1)CCN(c1ccncc1)CC2
Cytochrome P450 3A4
  AC50: 3.98 µM (inconclusive)
Cytochrome P450 2D6
  AC50: 12.6 µM (inconclusive)

## O=C(NCCC1=CCCCC1)c1ccc(Cl)c([N+](=O)[O-])c1
Fatty acid synthase [1]
  IC50: 11.7 µM (active)
Fatty acid synthase [2]
  IC50: 9.92 µM (active)

## Cc1ccc(-c2nn(-c3ccccc3)cc2/C=N/O)cc1
Streptococcus
  EC50: > 150 µM (not active)
[3]
  CC50: 27.9 µM (active)
Streptokinase A
  EC50: > 150 µM (not active)
[6]
  EC50: > 150 µM (not active)

## COc1ccc(-c2cc(C(=O)Nc3cc(OC)c(OC)c(OC)c3)no2)cc1OC
Cytochrome P450 3A4
  AC50: 10 µM (inconclusive)
Cytochrome P450 2C19
  AC50: 39.8 µM (inconclusive)

## CSc1nc(C)cc(SC(C(C)=O)C(=O)Nc2ccccc2)n1 (stereo not given)
Cytochrome P450 3A4
  AC50: 14.1 µM (inconclusive)
Cytochrome P450 1A2
  AC50: 15.8 µM (inconclusive)
Cytochrome P450 2C9
  AC50: 1.58 µM (inconclusive)

## COC(=O)[C@@]1(Cc2ccc(F)cc2)[C@H]2c3cc(C(=O)N4CCCC4)n(Cc4c(CO)ncc(C)c4O)c3C[C@H]2CN1C(=O)c1ccccc1
Cytochrome P450 2C19
  AC50: 39.8 µM (inconclusive)
Cytochrome P450 1A2
  AC50: 20 µM (inconclusive)

## O=C(/C=C/c1cccc([N+](=O)[O-])c1)N1CCN(c2ccc(F)cc2)CC1
Fatty acid synthase [1]
  IC50: 2.32 µM (active)
Fatty acid synthase [2]
  IC50: 4.93 µM (active)

## COc1ccc(NC(=O)NCc2cccn2C)c(OC)c1
Cytochrome P450 3A4
  AC50: 22.4 µM (inconclusive)
Cytochrome P450 2D6
  AC50: 0.501 µM (inconclusive)

## CC1(C)N(O)C(c2ccc(C(=O)O)cc2)=[N+]([O-])C1(C)C
Cytochrome P450 1A2
  AC50: 31.6 µM (inconclusive)

## COC(=O)c1cccc(NC(=O)CCCOc2ccccc2)c1
Cytochrome P450 3A4
  AC50: 12.6 µM (inconclusive)

## C[C@H](CN(C)C)C(C#N)(c1ccccc1)c1ccccc1
Cytochrome P450 3A4
  AC50: 3.98 µM (inconclusive)
Cytochrome P450 2D6
  AC50: 3.16 µM (inconclusive)

## CCCNC(=O)C12CCC(C)(c3nc4cc(C)c(C)cc4nc31)C2(C)C (stereo not given)
[5]
  EC50: 113 µM (active)

## O=c1c(-c2cccc(Cl)c2)nc2cncnc2n1Cc1ccccc1Cl
Cytochrome P450 3A4
  AC50: 12.6 µM (inconclusive)
Cytochrome P450 2D6
  AC50: 15.8 µM (inconclusive)

## COc1ccccc1N1CCN(C(=O)C(C)NC(=O)c2cccc([N+](=O)[O-])c2)CC1 (stereo not given)
Fatty acid synthase [1]
  IC50: 2.72 µM (active)
Fatty acid synthase [2]
  IC50: 1.48 µM (active)

## Cc1cccc(N(C)C(=O)c2cc3cc4ccc(C)cc4nc3o2)c1
[7]
  EC50: 1.69 µM (active)
H4
  EC50: 14.3 µM (active)

## O=C(COc1ccc2ccccc2c1)N1c2ccccc2Sc2ccccc21
[3]
  CC50: 26.8 µM (active)

## COc1ccc(-c2nc(C#N)c(N3CCC(C(N)=O)CC3)o2)cc1OC
Cytochrome P450 3A4
  AC50: 39.8 µM (inconclusive)
Cytochrome P450 2C19
  AC50: 22.4 µM (inconclusive)
Cytochrome P450 1A2
  AC50: 12.6 µM (inconclusive)

## Cc1ccccc1N(C(=O)Cn1nnc(-c2cccs2)n1)C(C(=O)NCCC(C)C)c1ccco1 (stereo not given)
[3]
  CC50: 40.4 µM (active)

## CCCOc1ccc(NC(=O)CC2C(=O)N(CC)C(=S)N2Cc2cccs2)cc1 (stereo not given)
Fatty acid synthase [1]
  IC50: 12.4 µM (active)
Fatty acid synthase [2]
  IC50: 10.9 µM (active)

## N#CC1=C2SC=C(c3ccc(Br)cc3)N2CCCC1=O
[7]
  EC50: 0.864 µM (active)
H4
  EC50: 16.9 µM (active)

## C/C(=N\NC(=O)COc1ccc(C)cc1C(C)C)c1ccc(-n2ccnc2)cc1
[3]
  CC50: 24.3 µM (active)

## COCC(=O)N1CCC2(CCCN(c3ccccc3)C2)CC1
Cytochrome P450 3A4
  AC50: 7.94 µM (inconclusive)

## CO[C@H]1[C@H](O[C@H]2O[C@@H](C)[C@@H](O[C@@H]3C[C@](C)(O)[C@H](OC(=O)CC(C)C)[C@H](C)O3)[C@@H](N(C)C)[C@@H]2O)[C@@H](CC=O)C[C@@H](C)[C@@H](O)/C=C\C=C/C[C@@H](C)OC(=O)C[C@H]1OC(C)=O
Cytochrome P450 3A4
  AC50: 12.6 µM (inconclusive)

## O=c1c(-c2ccccc2)nc2cnc(N3CCOCC3)nc2n1C[C@H]1CCCO1
Cytochrome P450 3A4
  AC50: 39.8 µM (inconclusive)

## COC(=O)c1ccc(/C=N\NC(=O)c2ccc(C)cc2Cl)cc1
Cytochrome P450 1A2
  AC50: 10 µM (inconclusive)

## CC1CCc2c(C(=O)Oc3cccc(-n4cnnn4)c3)csc2C1 (stereo not given)
Fatty acid synthase [1]
  IC50: 1.71 µM (active)
Fatty acid synthase [2]
  IC50: 1.36 µM (active)

## COc1ccc(C2SCC(=O)Nc3c2c(C)nn3C2CCOC(C)(C)C2)cc1 (stereo not given)
Cytochrome P450 3A4
  AC50: 28.2 µM (inconclusive)
Cytochrome P450 2C19
  AC50: 39.8 µM (inconclusive)
Cytochrome P450 2C9
  AC50: 25.1 µM (inconclusive)

## CN(CCC#N)C(=O)c1ccc(CNS(=O)(=O)c2ccc(F)cc2)cc1
Cytochrome P450 3A4
  AC50: 0.112 µM (inconclusive)
Cytochrome P450 1A2
  AC50: 2 µM (inconclusive)
Cytochrome P450 2C9
  AC50: 10 µM (inconclusive)

## CC(C)CC(C(=O)OCC(=O)Nc1ncc(Cl)cc1Cl)N1C(=O)c2ccccc2C1=O (stereo not given)
Cytochrome P450 3A4
  AC50: 31.6 µM (inconclusive)
Cytochrome P450 1A2
  AC50: 11.2 µM (inconclusive)

## O=C(CC1C[C@H](C(=O)N2CCOCC2)[C@@]2(CCC3CCCC3)c3[nH]c4ccccc4c3CCN2C1=O)NCc1cccc(C(F)(F)F)c1 (stereo not given in full)
Fatty acid synthase [1]
  IC50: 4.98 µM (active)
Fatty acid synthase [2]
  IC50: 8.04 µM (active)

## Cc1ccccc1Cn1c(Cc2ccccc2)nc2ccccc21
Cytochrome P450 3A4
  AC50: 31.6 µM (inconclusive)
Cytochrome P450 2D6
  AC50: 31.6 µM (inconclusive)
Cytochrome P450 1A2
  AC50: 17.8 µM (inconclusive)

## CC(=O)c1cccc(-c2ccnc3c2CC(C(=O)Nc2cccc(OC(F)(F)F)c2)O3)c1 (stereo not given)
Fatty acid synthase [1]
  IC50: 9.72 µM (active)
Fatty acid synthase [2]
  IC50: 6.27 µM (active)

## CC(C)(C)N1C(=O)[C@H]2[C@@H](c3ccc(Br)cc3)N3C(=O)N(c4cccc(F)c4)C(=O)[C@@]3(Cc3ccccc3)[C@H]2C1=O
Fatty acid synthase [1]
  IC50: 19.8 µM (active)
Fatty acid synthase [2]
  IC50: 10.8 µM (active)

## O=[N+]([O-])c1ccc(Cl)c(S(=O)(=O)Nc2ccc(-c3ccc(N4CCCC4)nn3)cc2)c1
Fatty acid synthase [1]
  IC50: 8.93 µM (active)
Fatty acid synthase [2]
  IC50: 11.3 µM (active)

## CN(C)c1ncc2nc(-c3cccc(C#N)c3)c(=O)n(C[C@H]3CCCO3)c2n1
Cytochrome P450 2D6
  AC50: 2.51 µM (inconclusive)
Cytochrome P450 1A2
  AC50: 3.16 µM (inconclusive)

## O=C(Nn1c(-c2ccc(Br)cc2)nc2ccccc2c1=O)c1ccc([N+](=O)[O-])cc1
Fatty acid synthase [1]
  IC50: 8.68 µM (active)
Fatty acid synthase [2]
  IC50: 7.74 µM (active)

## COc1cccc2c1Oc1ncccc1N(C(=O)CCC(=O)NCc1ccccc1F)C2
[4]
  EC50: > 38 µM (not active)
[5]
  EC50: 19.4 µM (inconclusive)
